According to PubChem BioAssay AID2060606 (Molecular Pharmacology Branch, DTP, NCI, 2025):

System: 922993-354-T-J3-PDC complex spheroids, viability, % test/control
Experiment: Anticancer human tumor 922993-354-T-J3-PDC patient-derived endometrial carcinoma cell line growth inhibition [CLK]
Conditions: for IC50: curve of first compound; for viability, T/C: stronger effect = lower value
Text: A high-throughput screen of multi-cell type tumor spheroids was designed to identify active combinations of […] and targeted small molecules. Complex spheroids include a stromal component modeled by human endothelial cells (HUVEC) and fibroblasts modeled by human mesenchymal stem cells (MSCs). The concentration ranges selected for each drug and investigational agent were based upon clinically achievable concentrations if the clinical Cmax of the agent was known.
Compounds. The drugs and investigational agents: cirtuvivint (SM08502; NSC835563), CC-671 (NSC850746), vemurafenib (NSC761431), tapotoclax (NSC804041), sotorasib (NSC818433), adagrasib (NSC831453), MRTX-1133 (NSC836407), BAY2416964 (NSC825713), copanlisib (NSC816437), inavolisib (NSC800729), abemaciclib (NSC768073), osimertinib (NSC779217), entinostat (NSC756642), eltanexor (KPT-8602, NSC794443), venetoclax (NSC766270), ceralasertib (NSC777638), bortezomib (NSC756655), olaparib (NSC753686), talazoparib (NSC767125), alisertib (NSC759677), peposertib (NSC802822), gemcitabine (NSC613327), 5-fluorouracil (NSC19893), SN-38 (NSC673596), oxaliplatin (NSC266046), paclitaxel (NSC125973), and doxorubicin (NSC123127), were obtained from the National Cancer Institute (NCI) Developmental Therapeutics Program Chemical Repository. The FDA-approved anticancer drug set is available from the Developmental Therapeutics Program at https://dtp.cancer.gov/organization/dscb/obtaining/available plates.htm. […] The stock solutions were prepared in dimethyl sulfoxide (DMSO, Sigma-Aldrich, St. Louis, MO, cat. D2650), except for the platinum complexes which were prepared in saline (Quality Biological, Gaithersburg, MD, cat. 114-055-101), at 800-fold the tested concentration and stored at -70 degrees C prior to their use. All drugs and investigational agents were tested over a range starting from a high concentration at or near the clinical Cmax and decreasing in half-log increments. If the clinical Cmax for an agent had not been determined, the highest concentration tested was 10 microM.
Cell Culture. All cells were maintained in an incubator at 37 degrees C and 5% CO2 with 95% humidity. The PDC lines were cultured according to standard operating procedures established by the NCI PDMR. Briefly, all PDCs were thawed and cultured in Matrigel-coated flasks prepared with a working solution of 1X Ham's F-12 nutrient mix, without supplementation (Invitrogen, Waltham, MA, cat. 11765054), 100 U/mL penicillin-streptomycin (Invitrogen, cat. 15140122), and 2.5% Matrigel (Corning Inc., Corning, NY, cat. 354248) for the first three passages. The 947758-054-R-J2-PDC line was cultured in 6B/Colon 1A media, which includes advanced DMEM/F-12 (Thermo Fisher Scientific, cat. 12634028), 10 mM HEPES (Thermo Fisher Scientific, cat. 15630080), 1X GlutaMAX supplement (Thermo Fisher Scientific, cat. 35050061), 0.1 mg/mL primocin (InvivoGen, cat. ant-pm-2), 10% defined fetal bovine serum, heat inactivated (HyClone Laboratories Inc., cat. SH30070.03HI), 1.25 mM N-Acetyl-L-cysteine (Sigma-Aldrich, cat. A9165), 10 mM nicotinamide (Sigma-Aldrich, cat. N0636), 1X B-27 supplement (Thermo Fisher Scientific, cat. 17504044), 1X N-2 supplement (Thermo Fisher Scientific, cat. 17502048), and 10 microM Y-27632 dihydrochloride (Tocris Bioscience, cat. 1254). The 876862-298-R-J1-PDC was cultured in 6E media, which includes all 6B/Colon 1A media components plus 50% L-WRN conditioned media (ATCC, cat. CRL-3276), 50 ng/mL recombinant human EGF recombinant protein (hEGF; Thermo Fisher Scientific, cat. PHG0311), 10 ng/mL recombinant human fibroblast growth factor 10 (hGFG-10; PeproTech, cat. 100-26), 1 ng/mL recombinant human fibroblast growth factor 2 (hFGF-2; PeproTech, cat. 100-18B), and 1 µM prostaglandin E2 (PGE2; Tocris, cat. 2296). The 227483-062-R1-J1-PDC line was cultured in Panc media, containing all 6E components except hFGF-2, with the addition of 500 nM SB-431542 (Selleckchem, cat. S1067) and 10 nM gastrin (Tocris, cat. 3006). […]

[1] = second compound 0.0316 µM, first compound 0.0316 µM
[2] = second compound 0.0316 µM, first compound 0.1 µM
[3] = second compound 0.0316 µM, first compound 0.316 µM
[4] = second compound 0.0316 µM, first compound 1 µM
[5] = second compound 0.0316 µM, first compound 3.16 µM
[6] = second compound 0.0316 µM, first compound 10 µM
[7] = second compound 0.1 µM, first compound 0.0316 µM
[8] = second compound 0.1 µM, first compound 0.1 µM
[9] = second compound 0.1 µM, first compound 0.316 µM
[10] = second compound 0.1 µM, first compound 1 µM
[11] = second compound 0.1 µM, first compound 3.16 µM
[12] = second compound 0.1 µM, first compound 10 µM
[13] = second compound 0.316 µM, first compound 0.0316 µM
[14] = second compound 0.316 µM, first compound 0.1 µM
[15] = second compound 0.316 µM, first compound 0.316 µM
[16] = second compound 0.316 µM, first compound 1 µM
[17] = second compound 0.316 µM, first compound 3.16 µM
[18] = second compound 0.316 µM, first compound 10 µM
[19] = second compound 1 µM, first compound 0.0316 µM
[20] = second compound 1 µM, first compound 0.1 µM
[21] = second compound 1 µM, first compound 0.316 µM
[22] = second compound 1 µM, first compound 1 µM
[23] = second compound 1 µM, first compound 3.16 µM
[24] = second compound 1 µM, first compound 10 µM
[25] = second compound 3.16 µM, first compound 0.0316 µM
[26] = second compound 3.16 µM, first compound 0.1 µM
[27] = second compound 3.16 µM, first compound 0.316 µM
[28] = second compound 3.16 µM, first compound 1 µM
[29] = second compound 3.16 µM, first compound 3.16 µM
[30] = second compound 3.16 µM, first compound 10 µM
[31] = second compound 10 µM, first compound 0.0316 µM
[32] = second compound 10 µM, first compound 0.1 µM
[33] = second compound 10 µM, first compound 0.316 µM
[34] = second compound 10 µM, first compound 1 µM
[35] = second compound 10 µM, first compound 3.16 µM
[36] = second compound 10 µM, first compound 10 µM
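Note: spheroids exposed to the agents for 7 days before readout.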

## C#Cc1c(F)ccc2cc(O)cc(-c3ncc4c(N5CC6CCC(C5)N6)nc(OCC56CCCN5CC(F)C6)nc4c3F)c12 (stereo unspecified) + CN1CCN(c2cc(C(=O)Nc3cc4cc(-c5cnn(C)c5)ccc4cn3)ccn2)CC1
Second compound 0.0316 µM
  IC50: > 10000 nM
Second compound 0.1 µM
  IC50: > 10000 nM
Second compound 0.316 µM
  IC50: 56.8 nM
Second compound 1 µM
  IC50: < 31.6 nM
Second compound 3.16 µM
  IC50: < 31.6 nM
Second compound 10 µM
  IC50: < 31.6 nM
[1]
  viability, T/C: 123%
[2]
  viability, T/C: 113%
[3]
  viability, T/C: 122%
[4]
  viability, T/C: 107%
[5]
  viability, T/C: 111%
[6]
  viability, T/C: 93.3%
[7]
  viability, T/C: 99.5%
[8]
  viability, T/C: 105%
[9]
  viability, T/C: 91.9%
[10]
  viability, T/C: 92.4%
[11]
  viability, T/C: 103%
[12]
  viability, T/C: 88%
[13]
  viability, T/C: 57%
[14]
  viability, T/C: 47.9%
[15]
  viability, T/C: 38.6%
[16]
  viability, T/C: 42.1%
[17]
  viability, T/C: 41.4%
[18]
  viability, T/C: 41.3%
[19]
  viability, T/C: 0.17%
[20]
  viability, T/C: 0.42%
[21]
  viability, T/C: 1.47%
[22]
  viability, T/C: 0.44%
[23]
  viability, T/C: 0.92%
[24]
  viability, T/C: 0.14%
[25]
  viability, T/C: 0.14%
[26]
  viability, T/C: 0.2%
[27]
  viability, T/C: 0.11%
[28]
  viability, T/C: 0.11%
[29]
  viability, T/C: 2.16%
[30]
  viability, T/C: 2.87%
[31]
  viability, T/C: 0.88%
[32]
  viability, T/C: 0.85%
[33]
  viability, T/C: 1.6%
[34]
  viability, T/C: 0.15%
[35]
  viability, T/C: 2.52%
[36]
  viability, T/C: 3.71%

## C=C(F)C(=O)N1CCN(c2nc(OCC3CCCN3C)nc3c2CCN(c2cccc4cccc(Cl)c24)C3)CC1CC#N (stereo unspecified) + CN1CCN(c2cc(C(=O)Nc3cc4cc(-c5cnn(C)c5)ccc4cn3)ccn2)CC1
Second compound 0.0316 µM
  IC50: 5380 nM
Second compound 0.1 µM
  IC50: 5610 nM
Second compound 0.316 µM
  IC50: < 31.6 nM
Second compound 1 µM
  IC50: < 31.6 nM
Second compound 3.16 µM
  IC50: < 31.6 nM
Second compound 10 µM
  IC50: < 31.6 nM
[1]
  viability, T/C: 121%
[2]
  viability, T/C: 103%
[3]
  viability, T/C: 118%
[4]
  viability, T/C: 101%
[5]
  viability, T/C: 94%
[6]
  viability, T/C: 1.08%
[7]
  viability, T/C: 106%
[8]
  viability, T/C: 95.9%
[9]
  viability, T/C: 92.6%
[10]
  viability, T/C: 87%
[11]
  viability, T/C: 110%
[12]
  viability, T/C: 1.37%
[13]
  viability, T/C: 50.1%
[14]
  viability, T/C: 51.6%
[15]
  viability, T/C: 36.4%
[16]
  viability, T/C: 41.5%
[17]
  viability, T/C: 45.6%
[18]
  viability, T/C: 0.87%
[19]
  viability, T/C: 0.79%
[20]
  viability, T/C: 0.16%
[21]
  viability, T/C: 0.83%
[22]
  viability, T/C: 0.12%
[23]
  viability, T/C: 0.11%
[24]
  viability, T/C: 1.63%
[25]
  viability, T/C: 0.14%
[26]
  viability, T/C: 0.63%
[27]
  viability, T/C: 0.92%
[28]
  viability, T/C: 0.12%
[29]
  viability, T/C: 0.11%
[30]
  viability, T/C: 1.67%
[31]
  viability, T/C: 0.19%
[32]
  viability, T/C: 0.18%
[33]
  viability, T/C: 0.88%
[34]
  viability, T/C: 0.29%
[35]
  viability, T/C: 0.19%
[36]
  viability, T/C: 0.93%

## CC(CO)NC(=O)c1cc(-c2ccc(Cl)cc2)nn(-c2cnn(C)c2)c1=O (stereo unspecified) + CN1CCN(c2cc(C(=O)Nc3cc4cc(-c5cnn(C)c5)ccc4cn3)ccn2)CC1
Second compound 0.0316 µM
  IC50: > 10000 nM
Second compound 0.1 µM
  IC50: > 10000 nM
Second compound 0.316 µM
  IC50: < 31.6 nM
Second compound 1 µM
  IC50: < 31.6 nM
Second compound 3.16 µM
  IC50: < 31.6 nM
Second compound 10 µM
  IC50: < 31.6 nM
[1]
  viability, T/C: 119%
[2]
  viability, T/C: 98.2%
[3]
  viability, T/C: 93.1%
[4]
  viability, T/C: 98%
[5]
  viability, T/C: 84.8%
[6]
  viability, T/C: 96%
[7]
  viability, T/C: 95.2%
[8]
  viability, T/C: 77.1%
[9]
  viability, T/C: 80.8%
[10]
  viability, T/C: 69.5%
[11]
  viability, T/C: 77.2%
[12]
  viability, T/C: 72.1%
[13]
  viability, T/C: 47.6%
[14]
  viability, T/C: 49.6%
[15]
  viability, T/C: 40%
[16]
  viability, T/C: 33.6%
[17]
  viability, T/C: 35.3%
[18]
  viability, T/C: 35.9%
[19]
  viability, T/C: 0.14%
[20]
  viability, T/C: 0.16%
[21]
  viability, T/C: 0.16%
[22]
  viability, T/C: 0.12%
[23]
  viability, T/C: 0.98%
[24]
  viability, T/C: 1.3%
[25]
  viability, T/C: 0.15%
[26]
  viability, T/C: 0.63%
[27]
  viability, T/C: 0.87%
[28]
  viability, T/C: 1.29%
[29]
  viability, T/C: 1.41%
[30]
  viability, T/C: 0.14%
[31]
  viability, T/C: 0.2%
[32]
  viability, T/C: 0.21%
[33]
  viability, T/C: 2%
[34]
  viability, T/C: 0.26%
[35]
  viability, T/C: 0.7%
[36]
  viability, T/C: 1.23%
